US7611852B2, “Functional cardiomyocytes from human embryonic stem cells” (Wisconsin Alumni Research Foundation, priority 2002, dated 2009)

Key:
[1] = test system: embryonic atrial-like cardiomyocytes; test: Intracellular action potential recording with sharp microelectrodes, embryonic atrial-like cardiomyocytes in EBs; assay type: cell-based, human
Excerpt: The applicants here have determined that the HERG channel response of cardiomyocytes in culture created from human embryonic stem cells can be tested and that they do have the same responsive characteristics as mature heart cells in adult humans. Shown in FIG. 5 is an experiment conducted on an atrial type cell, which is a cardiomyocyte in an EB in culture. Note that the electrical profile of the potential generated by that cell, labeled basal in FIG. 5, is characteristic of an embryonic atrial type action potential. To the culture in which that basal signal was being observed, 500 nanomolar E4031 was added. E4031 is a known highly specific HERG channel blocker which blocks the rapid delayed rectifying potassium current (IKr) in adult human heart cells. The addition of that chemical to the medium in which the EB was cultured led to the modification of the action potential generated by that atrial type cell, as illustrated by the curve marked “500 nM E4031” in FIG. 5. The action potential was prolonged due to delayed return to a resting state. This is precisely the effect that this molecule, E4031, is known to have on adult heart cells and precisely the effect that one would predict from the blockage of the HERG channel.
(§1) A single beating, microdissected EB outgrowth was cultured on a glass coverslip for 1-10 days. The coverslip was then attached to the bottom of an experimental chamber mounted on an inverted microscope (Nikon Diaphot 200). The EBs were perfused with Tyrodes solution consisting of (mmol/L): 140 NaCl, 1 MgCl2, 10 HEPES, 10 Glucose, 1.8 CaCl2, pH 7.4 with NaOH at 37° C. Contractions were measured using video edge detection. For intracellular electrophysiology experiments, sharp glass microelectrodes were fabricated with resistances of 30-100 MΩ when filled with 3 mol/L KCl. Spontaneously beating EBs were impaled with the microelectrodes and pipette capacitance was nulled. […] In some experiments, the preparation underwent electrical field stimulation at rates from 1 to 3 Hz. Data were digitized at 20 kHz and filtered at 2 kHz. APs were analyzed using pClamp8.02 (Axon Instruments, Foster City, Calif.) and Origin 6.0 software (Microcal Inc, Northampton, Mass.) to determine AP duration at 50% and 90% of repolarization (APD50 and APD90), AP amplitude (APA), maximum diastolic potential (MDP), and the maximum rate of rise of the AP upstroke (dV/dtmax).
Repolarization of the cardiac action potential is due to multiple ionic currents with an important role played by voltage gated K+ channels; however, there is significant species variability of the exact type of K+ channels present. In human heart, current through HERG potassium channels (KCNH2), IKr, plays a major role in repolarization of the action potential. […]

[2] = test system: embryonic ventricular-like cardiomyocytes; assay type: cell-based; conditions: 500 nM E-4031
[3] = test system: human embryonic stem cell-derived cardiomyocytes; test: Intracellular action potential recording with sharp microelectrodes, cell type not specified; assay type: cell-based; conditions: 500 nM E-4031
Description: as §1
Repolarization of the cardiac action potential is due to multiple ionic currents with an important role played by voltage gated K+ channels; however, there is significant species variability of the exact type of K+ channels present. […]

[4] = test system: human embryonic stem cell-derived cardiomyocytes (beating EB outgrowths); test: Contraction measurements of beating EB outgrowths by video edge detection during electrical field stimulation; assay type: cell-based; conditions: 1 micromolar, EB electrically stimulated at 1 hertz, basal level defined as 100, FIG. 1
Excerpt: One problem in the testing of cardiomyocytes in EBs is that the rate of spontaneous beating is variable can be dependent on a variety of factors. […] This can be readily done by applying an electrical field stimulation to the EB. This is done most simply by applying electrodes to opposite sides of the culture container in which the EB is contained. […] It is necessary as a part of this process to maintain the EB culture at a constant temperature, since temperature changes can also effect the amplitude of EB beats. It is possible to optically scan the EBs during such beating, using imaging processing observing the EB with video microscopy, to determine the amplitude of the beats which occur in such an EB. […] Additionally other properties of the beat can be monitored such as the rate of contraction and relaxation of the embryoid body providing additional mechanistic information. […]
Contractions were measured using video edge detection. […] Individual beating EBs were monitored with Video Edge Detector VED 105 (Crescent Electronics) through CCD BW Camera NL-2332 (National Electronic) and Sony BW Video Monitor PVM-97 (Sony Corp). The twitch responses at sharp edge of beating EB outgrowth were recorded at 1 kHz through DigiData 1200 A/D converter with pClamp 8.2 acquisition software (both from Axon Instrument, Foster City, Calif.). […]

Compound | APD50 ([1]; 500 nM E-4031) | APD90 ([1]; 500 nM E-4031) | action potential duration ([1]; 500 nM E-4031) | action potential duration ([1]; 500 nanomolar E4031 added to EB culture, atrial type cell, FIG. 5) | APD50 [2] | action potential duration [2] | APD90 ([2]; larger effect on APD90 than APD50) | APA (action potential amplitude) [3] | MDP (maximum diastolic potential) [3] | amplitude of the beat or contraction of the EB [4]
Cc1cccc(CCN2CCC(C(=O)c3ccc(NS(C)(=O)=O)cc3)CC2)n1 [E-4031] | not APD50 was significantly prolonged | significantly prolonged | action potential prolongation | prolonged | significant prolongation | action potential prolongation | significant prolongation | not statistically significant effects | not statistically significant effects | 
CC(C)NCC(O)c1ccc(O)c(O)c1 (stereo not shown) [isoproterenol] |  |  |  |  |  |  |  |  |  | increases dramatically
